Results from PubChem BioAssay (NCI).
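96-well plates; 48 h exposure; 5 concentrations. Endpoints by linear interpolation between flanking doses. Not reached: highest tested concentration assigned. TGI: concentration producing complete growth inhibition.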

Key:
Assay in all cases: growth of human tumour cells (NCI), 48 h
786-0 renal = test system: 786-0 renal
A498 renal = test system: A498 renal
A549 NSCLC = test system: A549 NSCLC
ACHN renal = test system: ACHN renal
CAKI-1 renal = test system: CAKI-1 renal
CCRF-CEM leukemia = test system: CCRF-CEM leukemia
COLO 205 colon = test system: COLO 205 colon
DLD-1 colon = test system: DLD-1 colon
DMS 114 small cell lung = test system: DMS 114 small cell lung
DMS 273 small cell lung = test system: DMS 273 small cell lung
EKVX NSCLC = test system: EKVX NSCLC
HCC-2998 colon = test system: HCC-2998 colon
HCT-116 colon = test system: HCT-116 colon
HCT-15 colon = test system: HCT-15 colon
HL-60(TB) leukemia = test system: HL-60(TB) leukemia
HOP-18 NSCLC = test system: HOP-18 NSCLC
HOP-62 NSCLC = test system: HOP-62 NSCLC
HOP-92 NSCLC = test system: HOP-92 NSCLC
HT29 colon = test system: HT29 colon
IGROV1 ovarian = test system: IGROV1 ovarian
K-562 leukemia = test system: K-562 leukemia
KM12 colon = test system: KM12 colon
KM20L2 colon = test system: KM20L2 colon
LOX IMVI melanoma = test system: LOX IMVI melanoma
LXFL 529 NSCLC = test system: LXFL 529 NSCLC
M14 melanoma = test system: M14 melanoma
M19-MEL melanoma = test system: M19-MEL melanoma
MALME-3M melanoma = test system: MALME-3M melanoma
MOLT-4 leukemia = test system: MOLT-4 leukemia
NCI-H226 lung = test system: NCI-H226 lung
NCI-H23 lung = test system: NCI-H23 lung
NCI-H460 lung = test system: NCI-H460 lung
NCI-H522 lung = test system: NCI-H522 lung
OVCAR-3 ovarian = test system: OVCAR-3 ovarian
OVCAR-4 ovarian = test system: OVCAR-4 ovarian
OVCAR-5 ovarian = test system: OVCAR-5 ovarian
OVCAR-8 ovarian = test system: OVCAR-8 ovarian
RPMI-8226 leukemia = test system: RPMI-8226 leukemia
RXF 393 renal = test system: RXF 393 renal
RXF-631 renal = test system: RXF-631 renal
SF-268 CNS = test system: SF-268 CNS
SF-295 CNS = test system: SF-295 CNS
SK-MEL-2 melanoma = test system: SK-MEL-2 melanoma
SK-MEL-28 melanoma = test system: SK-MEL-28 melanoma
SK-MEL-5 melanoma = test system: SK-MEL-5 melanoma
SK-OV-3 ovarian = test system: SK-OV-3 ovarian
SN12C renal = test system: SN12C renal
SNB-19 CNS = test system: SNB-19 CNS
SNB-75 CNS = test system: SNB-75 CNS
SNB-78 CNS = test system: SNB-78 CNS
SR leukemia = test system: SR leukemia
SW-620 colon = test system: SW-620 colon
TK-10 renal = test system: TK-10 renal
U251 CNS = test system: U251 CNS
UACC-257 melanoma = test system: UACC-257 melanoma
UACC-62 melanoma = test system: UACC-62 melanoma
UO-31 renal = test system: UO-31 renal
SF-539 CNS = test system: SF-539 CNS
XF 498 CNS = test system: XF 498 CNS

Measured: TGI

CCCCCCCCCCC(C)CCCCCCC(=O)OCC(COP(=O)([O-])OCC[N+](C)(C)C)OC(=O)CCCCCCC(C)CCCCCCCCCC (stereo not given)
not listed: SF-539 CNS | XF 498 CNS
> 100 µM: all other assays above

Clc1ccc(-n2nnc(C3=NCCCN3)c2-c2ccccc2)cc1
not listed: RXF-631 renal
> 100 µM: all other assays above
